Results as given in paper PMC3681751, “Identification of a Novel Antimicrobial Peptide from Human Hepatitis B Virus Core Protein Arginine-Rich Domain (ARD)” (PLoS Pathogens, 2013).
Values after ≈ are worked out from the molar mass of the structure shown. Like-named read-outs stand apart in the source and are kept apart here. Positions of bridges follow the written chain, without caps; N, C: chain ends. Non-standard residues stand in square brackets, D forms with d. Residues, ends and D or L forms follow the SMILES beside them. No end group written: not given here. *: point of attachment. X1 = CC[C@H](C)CCCCC(=O)*; Dab = NCC[C@H](N)C(=O)O

Assays:
[1] = test system: HepG2 cells; experiment: Peptide uptake into mammalian cells; format: cell-based, human; conditions: peptide added to the medium of HepG2 cells
Protocol: To set up CFSE cell proliferation assay, 293 cells (human kidney origin) and Vero cells (monkey kidney origin) were resuspended in PBS to a final concentration of 10^6 cells/ml, before incubation with 10 µM CFSE dye (CellTrace CFSE cell proliferation kit, Invitrogen) at 37°C for 10 min. To quench the staining, ice-old culture media were then added and incubated on ice for 5 min. Labeled cells were then pelleted and washed three times by fresh medium containing 10% FBS before seeding into six well plates at a density of 3.3×10^5cells/well. After 20 h, the medium was removed and incubated with fresh medium containing 5, 25 and 100 µM HBc 147-183 for one hour (FITC-labeled ARD peptide had been largely internalized in 10 minutes after the addition of ARD peptides to the medium of HepG2 cells). Forty-eight hours later, cells were harvested and analyzed by flow cytometry (FACSCanto, BD Bioscience).

[2] = test system: E. coli (ATCC 25922); format: cell-based, Escherichia coli; conditions: 3 h at 37°C in phosphate buffer pH 7.2; triplicate
Summary of the method: (§1)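 Mid-log cultures grown in Mueller–Hinton broth were diluted to 10^6 CFU/ml in 10 mM sodium phosphate, 50 mM NaCl, pH 7.2, mixed with serially diluted HBc ARD peptides, and held 3 hours at 37°C without shaking. Survivors were plated on Mueller–Hinton agar overnight at 37°C to define MBC; triplicates.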

[3] = test system: P. aeruginosa (ATCC 27853); format: cell-based, Pseudomonas aeruginosa
Summary of the method: as §1

[4] = test system: P. aeruginosa (ATCC 9027); format: cell-based, Pseudomonas aeruginosa
Summary of the method: as §1

[5] = test system: P. aeruginosa; experiment: SYTOX Green uptake (membrane permeabilization); format: cell-based, Pseudomonas aeruginosa; conditions: 0.5, 1 and 2 µM, dose-dependent; triplicates
Protocol: Briefly, bacteria (10^7 CFU) were prepared and mixed with 1 µM SYTOX Green (Invitrogen) for 15 minutes in the dark. […] Melittin (Sigma), the major toxin of bee venom, was used as a positive control to provide maximal permeabilization.

[6] = test system: K. pneumonia (ATCC 13884); format: cell-based, Klebsiella pneumoniae
[7] = test system: P. aeruginosa NHRI-01; format: cell-based, Pseudomonas aeruginosa; conditions: Colistin resistant strain; colistin susceptibility by broth-dilution (CLSI)
Source text: (§2) Clinical isolates of Pseudomonas aeruginosa (NHRI-01, NHRI-02 and NHRI-04) were obtained through the program of Taiwan Surveillance of Antimicrobial Resistance (TSAR), National Health Research Institutes (NHRI), Taiwan. Acinetobacter baumannii (ATCC 17989, ATCC 17978 CR, ATCC19606, ATCC 19606 CR, TCGH 45530 and TCGH 46709) were obtained from Tzu-Chi Buddhist General Hospital (TCGH) in Taiwan, and clinical isolates (TCGH 45530 and TCGH 46709) were identified using the Vitek system (Biomerieux Vitek, Inc., Hazelwood, MO, USA). A. baumannii is defined as multidrug-resistant, when the organism is resistant to piperacillin, piperacillin-tazobactam, ampicillin/sulbactam, imipenem, ceftazidime, gentamicin, amikacin, tetracycline, chloramphenicol, ciprofloxacin, and cotrimoxazole. Susceptibility to colistin was determined using the broth-dilution method, in accordance with the guidelines of the Clinical and Laboratory Standards Institute (CLSI).
(§3) All peptides were purchased from Yao-Hong Biotechnology Inc. (Taipei, Taiwan). Vendors provided data of peptide characterizations, including HPLC and Mass (data not shown). Antimicrobial activity was determined as described with some modifications as detailed below. Bacteria were grown overnight in Mueller–Hinton broth (Difco) at 37°C, and during the mid-logarithmic phase, bacteria were diluted to 10^6 CFU (colony formation unit)/ml in phosphate buffer (10 mM sodium phosphate and 50 mM sodium chloride, pH 7.2). Peptides were serially diluted in the same buffer. Fifty microliter (µl) of bacteria was mixed with fifty µl of peptides at varying concentrations followed by incubation at 37°C for 3 hours without shaking. At the end of incubation, bacteria were placed on Mueller-Hinton broth agar plates, and allowed growth at 37°C overnight for measurement of minimal bactericidal concentration (MBC). […] All peptides were tested in triplicate.

[8] = test system: P. aeruginosa NHRI-04; format: cell-based, Pseudomonas aeruginosa; conditions: Colistin sensitive strain; colistin susceptibility by broth-dilution (CLSI)
Source text: as §2, §3

[9] = test system: P. aeruginosa NHRI-02; format: cell-based, Pseudomonas aeruginosa; conditions: Colistin sensitive strain; colistin susceptibility by broth-dilution (CLSI)
Source text: as §2, §3

[10] = test system: A. baumannii TCGH45530; format: cell-based, Acinetobacter baumannii; conditions: Clinical isolate, multidrug resistance; colistin susceptibility by broth-dilution (CLSI)
Source text: as §2, §3

[11] = test system: A. baumannii ATCC19606; format: cell-based, Acinetobacter baumannii; conditions: Reference strain; colistin susceptibility by broth-dilution (CLSI)
Source text: as §2, §3

[12] = test system: A. baumannii ATCC17978 CR; format: cell-based, Acinetobacter baumannii; conditions: Induced Colistin resistant strain; colistin susceptibility by broth-dilution (CLSI)
Source text: as §2, §3

[13] = test system: A. baumannii ATCC17978; format: cell-based, Acinetobacter baumannii; conditions: Reference strain; colistin susceptibility by broth-dilution (CLSI)
Source text: as §2, §3

[14] = test system: A. baumannii ATCC19606 CR; format: cell-based, Acinetobacter baumannii; conditions: Induced Colistin resistant strain; colistin susceptibility by broth-dilution (CLSI)
Source text: as §2, §3

[15] = test system: A. baumannii TCGH46709; format: cell-based, Acinetobacter baumannii; conditions: Clinical isolate, multidrug resistance; colistin susceptibility by broth-dilution (CLSI)
Source text: as §2, §3

[16] = ampicillin-resistant strain, 3 h at 37°C in phosphate buffer pH 7.2, triplicate

FITC-labeled HBc147-183: FITC-labeled HBc147-183 used for localization by confocal microscopy (TVVRRRGRSPRRRTPSPRRRRSQSPRRRRSQSRESQC; also: FITC label, place not given here; UniProt P03147 147-183, looked up, fragment)
Time after which peptide was largely internalized [1]: 10 min

C[C@@H](O)[C@H](NC(=O)[C@H](CCCNC(=N)N)NC(=O)[C@H](CCCNC(=N)N)NC(=O)[C@H](CCCNC(=N)N)NC(=O)[C@@H]1CCCN1C(=O)[C@H](CO)NC(=O)[C@H](CCCNC(=N)N)NC(=O)CN)C(=O)N1CCC[C@H]1C(=O)N[C@@H](CO)C(=O)N1CCC[C@H]1C(=O)N[C@@H](CCCNC(=N)N)C(=O)N[C@@H](CCCNC(=N)N)C(=O)N[C@@H](CCCNC(=N)N)C(=O)N[C@@H](CCCNC(=N)N)C(=O)N[C@@H](CO)C(=O)N[C@@H](CCC(N)=O)C(=O)N[C@@H](CO)C(=O)N1CCC[C@H]1C(=O)N[C@@H](CCCNC(=N)N)C(=O)N[C@@H](CCCNC(=N)N)C(=O)N[C@@H](CCCNC(=N)N)C(=O)N[C@@H](CCCNC(=N)N)C(=O)N[C@@H](CO)C(=O)O [HBc153-176] (H-GRSPRRRTPSPRRRRSQSPRRRRS-OH; N-terminus and C-terminus assumed)
Antimicrobial activity, MBC [2]: 48 µg/mL | Antimicrobial activity, MBC ([3]; ATCC 27853, 3 h, pH 7.2): 1 to 2 µM | Antimicrobial activity, MBC [3, 16]: 3 to 6 µg/mL | Antimicrobial activity, MBC ([4]; ATCC 9027, 3 h, pH 7.2): 1 to 2 µM | Antimicrobial activity, MBC [4, 16]: 3 to 6 µg/mL | MBC against P. aeruginosa ([4]; summary over the P. aeruginosa strains of Table 1 (ATCC 9027, ATCC 27853)): strong activity | Time to membrane permeabilization (SYTOX Green uptake) [5]: ≤ 10 min | Antimicrobial activity, MBC ([6]; 3 h at 37°C in phosphate buffer pH 7.2, triplicate): > 96 µg/mL | Antimicrobial activity, MBC ([6]; ATCC 13884, 3 h, pH 7.2): > 32 µM

CC[C@H](C)CCCCC(=O)N[C@@H](CCN)C(=O)N[C@H](C(=O)N[C@@H](CCN)C(=O)N[C@H]1CCNC(=O)[C@H]([C@@H](C)O)NC(=O)[C@H](CCN)NC(=O)[C@H](CCN)NC(=O)[C@H](CC(C)C)NC(=O)[C@@H](CC(C)C)NC(=O)[C@H](CCN)NC1=O)[C@@H](C)O [Colistin] (X1-[Dab]T[Dab][Dab][Dab][dL]L[Dab][Dab]T; lactam 4-C (inferred); N-terminus assumed)
MBC [7]: >8 µg/mL | MBC [8]: 4 µg/mL (≈ 3.42 µM) | MBC [9]: 4 µg/mL (≈ 3.42 µM) | MBC [10]: >8 µg/mL | MBC [11]: 2 µg/mL (≈ 1.71 µM) | MBC [12]: >8 µg/mL | MBC [13]: 4 µg/mL (≈ 3.42 µM) | MBC [14]: 8 µg/mL (≈ 6.84 µM) | MBC [15]: >8 µg/mL

CC[C@H](C)CCCCC(=O)N[C@@H](CCN)C(=O)N[C@H](C(=O)N[C@@H](CCN)C(=O)N[C@H]1CCNC(=O)[C@H]([C@@H](C)O)NC(=O)[C@H](CCN)NC(=O)[C@H](CCN)NC(=O)[C@H](CC(C)C)NC(=O)[C@@H](Cc2ccccc2)NC(=O)[C@H](CCN)NC1=O)[C@@H](C)O [Polymyxin B] (X1-[Dab]T[Dab][Dab][Dab][dF]L[Dab][Dab]T; lactam 4-C (inferred); N-terminus assumed)
MBC [7]: 4 µg/mL (≈ 3.32 µM) | MBC [8]: 2 µg/mL (≈ 1.66 µM) | MBC [9]: 2 µg/mL (≈ 1.66 µM) | MBC [10]: 8 µg/mL (≈ 6.65 µM) | MBC [11]: 2 µg/mL (≈ 1.66 µM) | MBC [12]: 8 µg/mL (≈ 6.65 µM) | MBC [13]: 4 µg/mL (≈ 3.32 µM) | MBC [14]: >8 µg/mL | MBC [15]: >8 µg/mL
